Active and inactive are the calls of the source. The calls are words filed in the database; no cut-off is given here.
tested on: not listed separately; experiment: Cytotoxicity against human U937 cells after 24 hrs by MTT assay; assay type: functional, cell-based; settings: U-937, 24 h

**Q.** For C[C@H](CCCNc1ccccc1)[C@H]1CC[C@@]2(C)C3=C(CC[C@]12C)[C@@]1(C)CC[C@H](O)C(C)(C)[C@@H]1CC3, which IC50 is on record?
**A.** Its IC50 is 132 µM.

**Q.** With CC(=O)O[C@H]1CC[C@]2(C)C3=C(CC[C@H]2C1(C)C)[C@]1(C)CC[C@H]([C@H](C)CCCN2CCN(CCO)CC2)[C@@]1(C)CC3 as the compound, how does the IC50 read?
**A.** The IC50 was 9.3 µM.

**Q.** For C[C@H](CCCN1CCOCC1)[C@H]1CC[C@@]2(C)C3=C(CC[C@]12C)[C@@]1(C)CC[C@H](O)C(C)(C)[C@@H]1CC3, which IC50 is on record?
**A.** Its IC50 is 128 µM.

**Q.** With CC(=O)O[C@H]1CC[C@]2(C)C3=C(CC[C@H]2C1(C)C)[C@]1(C)CC[C@H]([C@H](C)CCCN2CCOCC2)[C@@]1(C)CC3 as the compound, how does the IC50 read?
**A.** The IC50 was 148 µM.

**Q.** For CCN(CC)CCC[C@@H](C)[C@H]1CC[C@@]2(C)C3=C(CC[C@]12C)[C@@]1(C)CC[C@H](O)C(C)(C)[C@@H]1CC3, which IC50 is on record?
**A.** Its IC50 is 3.5 µM.

**Q.** Which IC50 does the source give for CC(=O)O[C@H]1CC[C@]2(C)C3=C(CC[C@H]2C1(C)C)[C@]1(C)CC[C@H]([C@H](C)CCCN2CCCCC2)[C@@]1(C)CC3 here?
**A.** Its IC50 is 14.9 µM.

tested on: U-937; experiment: Induction of apoptosis in human U937 cells assessed as condensed/fragmented nuclei at 10 ug/ml after 24 hrs using Hoechst 33342 staining by microscopy relative to solvent control; assay type: functional; settings: not given

**Q.** Which Activity does the source give for CC(=O)O[C@H]1CC[C@]2(C)C3=C(CC[C@H]2C1(C)C)[C@]1(C)CC[C@H]([C@H](C)CCCN2CCN(CCO)CC2)[C@@]1(C)CC3 here?
**A.** The Activity was 10.2%.

**Q.** With CCN(CC)CCC[C@@H](C)[C@H]1CC[C@@]2(C)C3=C(CC[C@]12C)[C@@]1(C)CC[C@H](O)C(C)(C)[C@@H]1CC3 as the compound, how does the Activity read?
**A.** Its Activity is 3%.

tested on: U-937; experiment: Induction of apoptosis in human U937 cells assessed as condensed/fragmented nuclei at 25 ug/ml after 24 hrs using Hoechst 33342 staining by microscopy relative to solvent control; assay type: functional; settings: not given

**Q.** For CC(=O)O[C@H]1CC[C@]2(C)C3=C(CC[C@H]2C1(C)C)[C@]1(C)CC[C@H]([C@H](C)CCCN2CCCCC2)[C@@]1(C)CC3, which Activity is on record?
**A.** Its Activity is 8.8%.

tested on: U-937; experiment: Induction of apoptosis in human U937 cells assessed as condensed/fragmented nuclei at 50 ug/ml after 24 hrs using Hoechst 33342 staining by microscopy relative to solvent control; assay type: functional; settings: not given

**Q.** Which Activity does the source give for CC(=O)O[C@H]1CC[C@]2(C)C3=C(CC[C@H]2C1(C)C)[C@]1(C)CC[C@H]([C@H](C)CCCN2CCCCC2)[C@@]1(C)CC3 here?
**A.** Its Activity is 10.6%.

tested on: U-937; experiment: Induction of apoptosis in human U937 cells assessed as condensed/fragmented nuclei at 5 ug/ml after 24 hrs using Hoechst 33342 staining by microscopy relative to solvent control; assay type: functional; settings: not given

**Q.** With CC(=O)O[C@H]1CC[C@]2(C)C3=C(CC[C@H]2C1(C)C)[C@]1(C)CC[C@H]([C@H](C)CCCN2CCN(CCO)CC2)[C@@]1(C)CC3 as the compound, how does the Activity read?
**A.** Its Activity is 7.3%.

**Q.** For CCN(CC)CCC[C@@H](C)[C@H]1CC[C@@]2(C)C3=C(CC[C@]12C)[C@@]1(C)CC[C@H](O)C(C)(C)[C@@H]1CC3, which Activity is on record?
**A.** Its Activity is 3.7%.

tested on: U-937; experiment: Induction of apoptosis in human U937 cells assessed as caspase 3/7 level at 10 ug/ml after 24 hrs by Caspase-Glo 3/7 assay relative to solvent control; assay type: functional; settings: not given

**Q.** For CC(=O)O[C@H]1CC[C@]2(C)C3=C(CC[C@H]2C1(C)C)[C@]1(C)CC[C@H]([C@H](C)CCCN2CCN(CCO)CC2)[C@@]1(C)CC3, which Activity is on record?
**A.** Its Activity is 7.8%.

**Q.** With CCN(CC)CCC[C@@H](C)[C@H]1CC[C@@]2(C)C3=C(CC[C@]12C)[C@@]1(C)CC[C@H](O)C(C)(C)[C@@H]1CC3 as the compound, how does the Activity read?
**A.** Its Activity is 2.4%.

tested on: U-937; experiment: Induction of apoptosis in human U937 cells assessed as caspase 3/7 level at 25 ug/ml after 24 hrs by Caspase-Glo 3/7 assay relative to solvent control; assay type: functional; settings: not given

**Q.** With CC(=O)O[C@H]1CC[C@]2(C)C3=C(CC[C@H]2C1(C)C)[C@]1(C)CC[C@H]([C@H](C)CCCN2CCCCC2)[C@@]1(C)CC3 as the compound, how does the Activity read?
**A.** Its Activity is 1.9%.

tested on: U-937; experiment: Induction of apoptosis in human U937 cells assessed as caspase 3/7 level at 50 ug/ml after 24 hrs by Caspase-Glo 3/7 assay relative to solvent control; assay type: functional; settings: not given

**Q.** With CC(=O)O[C@H]1CC[C@]2(C)C3=C(CC[C@H]2C1(C)C)[C@]1(C)CC[C@H]([C@H](C)CCCN2CCCCC2)[C@@]1(C)CC3 as the compound, how does the Activity read?
**A.** Its Activity is 3.4%.

tested on: U-937; experiment: Induction of apoptosis in human U937 cells assessed as caspase 3/7 level at 5 ug/ml after 24 hrs by Caspase-Glo 3/7 assay relative to solvent control; assay type: functional; settings: not given

**Q.** Which Activity does the source give for CC(=O)O[C@H]1CC[C@]2(C)C3=C(CC[C@H]2C1(C)C)[C@]1(C)CC[C@H]([C@H](C)CCCN2CCN(CCO)CC2)[C@@]1(C)CC3 here?
**A.** Its Activity is 6.6%.

**Q.** Which Activity does the source give for CCN(CC)CCC[C@@H](C)[C@H]1CC[C@@]2(C)C3=C(CC[C@]12C)[C@@]1(C)CC[C@H](O)C(C)(C)[C@@H]1CC3 here?
**A.** Its Activity is 2.3%.

tested on: U-937; experiment: Induction of apoptosis in human U937 cells assessed as DNA fragmentation measured as DNA laddering at 25 ug/ml after 24 hrs by agarose gel electophoresis relative to solvent control; assay type: functional, cell-based; settings: not given

**Q.** Which Activity does the source give for CC(=O)O[C@H]1CC[C@]2(C)C3=C(CC[C@H]2C1(C)C)[C@]1(C)CC[C@H]([C@H](C)CCCN2CCCCC2)[C@@]1(C)CC3 here?
**A.** Its Activity is “Active”.

tested on: U-937; experiment: Induction of apoptosis in human U937 cells assessed as DNA fragmentation measured as DNA laddering at 10 ug/ml after 24 hrs by agarose gel electophoresis relative to solvent control; assay type: functional, cell-based; settings: not given

**Q.** For CC(=O)O[C@H]1CC[C@]2(C)C3=C(CC[C@H]2C1(C)C)[C@]1(C)CC[C@H]([C@H](C)CCCN2CCN(CCO)CC2)[C@@]1(C)CC3, which Activity is on record?
**A.** Its Activity is “Active”.

tested on: U-937; experiment: Induction of apoptosis in human U937 cells assessed as DNA fragmentation measured as DNA laddering at 5 ug/ml after 24 hrs by agarose gel electophoresis relative to solvent control; assay type: functional, cell-based; settings: not given

**Q.** Which Activity does the source give for CCN(CC)CCC[C@@H](C)[C@H]1CC[C@@]2(C)C3=C(CC[C@]12C)[C@@]1(C)CC[C@H](O)C(C)(C)[C@@H]1CC3 here?
**A.** The Activity was “Active”.
